Marks after values point to notes of the source that are not given here.
Assays:
[1] = system: human β2 adrenergic receptor-T4-lyosome fusion protein (β2AR-T4L); assay: Thermal stabilization (Tm) of β2AR-T4L in amphiphile, normalized peak ratio 341 nm/356 nm; set-up: Tm: unit: °C; conditions: 250 × CMC; for Tm: β2AR-T4L
[2] = system: human β2 adrenergic receptor-T4-lyosome fusion protein (β2AR-T4L); assay: as above; set-up: Tm: unit: °C; conditions: for Tm: β2AR-T4L
Excerpt: FIG. 3 illustrates the results of comparing MNGs to MPAs at 10×CMC for stabilization efficacy of β2 adrenergic receptor-T4-lyosome fusion protein (β2AR-T4L), according to an embodiment of the invention.
FIG. 4 illustrates the results of comparing MNGs to MPAs at 50×CMC for stabilization efficacy of β2AR-T4L, according to an embodiment of the invention. Similar to FIG. 3, the horizontal dotted line extending from 50% on the y-axis in FIG. 4 indicates the melting temperature (Tm).
The branched amphiphiles of the invention have shown to have several advantageous properties that match or surpass those of many known amphiphiles. The branched nature provide improved stabilization, attributable to the dual saccharide chains, and improved solubilization, attributable to the dual hydrophobic tail groups. FIGS. 3 and 4 show a comparative study showing normalized peak ratios (341 nm/356 nm) for six different amphiphiles (illustrated in Schemes F and G) from 25° C. to 85° C., at 10×CMC and 50×CMC for human β2 adrenergic receptor-T4-lyosome fusion protein (β2AR-T4L).

β2AR = β2AR (Homo sapiens, UniProt P07550); assay: Lipidic cubic phase (LCP) crystallization of agonist-bound β2AR; conditions: detergent present before incorporation into LCP
Chain of β2AR (P07550 whole entry): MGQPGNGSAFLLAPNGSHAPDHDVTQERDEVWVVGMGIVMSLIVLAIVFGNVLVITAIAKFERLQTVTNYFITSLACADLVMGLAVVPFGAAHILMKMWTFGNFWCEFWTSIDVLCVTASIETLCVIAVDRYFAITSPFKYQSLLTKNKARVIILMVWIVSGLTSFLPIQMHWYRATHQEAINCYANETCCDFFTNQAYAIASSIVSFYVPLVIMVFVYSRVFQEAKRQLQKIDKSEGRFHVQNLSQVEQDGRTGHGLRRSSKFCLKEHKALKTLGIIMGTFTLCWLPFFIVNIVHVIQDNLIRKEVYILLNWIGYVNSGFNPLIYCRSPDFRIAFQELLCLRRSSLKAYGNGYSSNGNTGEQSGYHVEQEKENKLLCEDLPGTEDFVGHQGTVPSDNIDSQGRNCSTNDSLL
Excerpt: LCP methods have proven useful for crystallizing membrane proteins, including G protein-coupled receptors (GPCRs). However, the process of incorporating membrane proteins from a detergent solubilized state into LCP can lead to denaturation of the protein.

M3 muscarinic receptor = assay: [3H]N-methylscopolamine binding to purified M3 muscarinic receptor in amphiphiles/detergents; conditions: for Binding (counts per minute (CPM)) of [3H]NMS compared to the use of DDM alone: upon addition of the amphiphile, HEPES pH 7.5, 100 mM NaCl
Experimental: For FIG. 5, the samples (DDM, MNG-28, and MNG-14) were combined with HEPES pH 7.5 buffer in a 100 mM NaCl solution. […] Therefore, the amphiphilic compounds described herein, such as the MNG amphiphiles, provide new options for enhancing the function and analysis of various isolated and/or purified proteins and receptors.

[3] = system: R. capsulatus LHI-RC superassembly; assay: R. capsulatus photosynthetic superassembly solubilization and purification assay (detergent classification); set-up: species or system Rhodobacter capsulatus; conditions: words printed in the Classification column instead of a class: behaviour of the amphiphile
Experimental: To begin the solubilization and purification process, frozen aliquots of R. capsulatus membranes were thawed, homogenized, and equilibrated to 32° C. for 30 minutes.
The membrane samples were allowed to incubate with the amphiphile for 30 minutes at 32° C. The solubilized material was then separated from the membrane debris in an ultracentrifuge at 315,000×g at 4° C. for 30 minutes. […] The tubes were then incubated and inverted for 1 hour at 4° C.
Once binding was complete, samples were loaded onto resin-retaining spin columns (e.g., emptied His Spin Trap™ columns; GE Healthcare). The columns were then inserted into a 2 mL microcentrifuge tube to retain the filtered solution during centrifugation. […] Finally, protein was eluted into a fresh microcentrifuge tube with three 0.2 mL elution buffer aliquots (this buffer was identical to binding buffer with the addition of 1 M imidazole).
The R. capsulatus LHI-RC complexes extracted and purified by this procedure contain large numbers of cofactors that have absorptions at distinct wavelengths, and each component of the LHI-RC superassembly has a different inherent stability outside the lipid bilayer. The solubilization protocol outlined above therefore provides a multifaceted assessment of the efficacy of conventional detergents and novel amphiphiles. UV-Vis absorption spectroscopy data obtained at various stages of the protocol allow one to determine which protein components have degraded at these stages. […] The disruption potential was measured as the yield of superassembly extracted during solubilization (or, alternatively and more precisely, as the absence of superassembly in the pellet from the spin following solubilization).
The stabilizing propensity was determined from the spectra of the purified protein.

[4] = Critical micelle concentration (CMC) by fluorescent dye uptake; type: physicochemical
Excerpt: The Critical Micelle Concentrations (CMCs) of compounds of the invention can be determined by standard techniques known to those of skill in the art. For example, CMCs of the carbohydrate-based amphiphiles described herein can be determined by monitoring uptake of a fluorescent dye (e.g., a dye such as 1,6-diphenylhexatriene) with increasing detergent concentration, monitored by fluorescence spectroscopy.

[5] = 10 × CMC, scan from 25° C. to 85° C.

## CCCCCCCCCCCCO[C@@H]1O[C@H](CO)[C@@H](O[C@H]2O[C@H](CO)[C@@H](O)[C@H](O)[C@H]2O)[C@H](O)[C@H]1O [DDM, dodecylmaltoside, reference compound]
[1]
  Tm: 62.2 (n = 4)
[2]; [5]
  Tm: 63.5 (n = 4)*
[2]; 50 × CMC
  Tm: 63.0 (n = 4)
β2AR
  Outcome of LCP crystallization of agonist-bound β2AR: not sufficiently stable to survive the transition to LCP
M3 muscarinic receptor; M3 receptor purified from baculovirus infected insect cells using the detergent
  Specific binding to [3H]N-methylscopolamine: little specific binding

## CC(C)(C)c1ccc(C(=O)NCC(CNC(=O)c2ccc(C(C)(C)C)cc2)(COC2OC(CO)C(O)C(O)C2O)COC2OC(CO)C(O)C(O)C2O)cc1 (centres unmarked) [GNG-3]
[3]
  Classification (entry in words): aggregation

## O=C(NCC(CNC(=O)C1CCCCC1)(COC1OC(CO)C(O)C(O)C1O)COC1OC(CO)C(O)C(O)C1O)C1CCCCC1 (centres unmarked) [GNG-5]
[3]
  Classification (entry in words): Insoluble

## CC(C)(C)c1ccc(OCC(COc2ccc(C(C)(C)C)cc2)(COC2OC(CO)C(O)C(O)C2O)COC2OC(CO)C(O)C(O)C2O)cc1 (centres unmarked) [GNG-8]
[3]
  Classification (entry in words): aggregation

## CCCCCCCC(CCCCCCC)(COC1OC(CO)C(O)C(O)C1O)COC1OC(CO)C(O)C(O)C1O (centres unmarked) [GNG-9]
[4]
  CMC: 0.11 mM
  CMC (%): 0.0066%
[3]
  Classification (entry in words): limited

## CCCCCCCCCCC(CCCCCCCCCC)(COC1OC(CO)C(OC2OC(CO)C(O)C(O)C2O)C(O)C1O)COC1OC(CO)C(OC2OC(CO)C(O)C(O)C2O)C(O)C1O (centres unmarked) [MNG-14]
[4]
  CMC: 0.01 mM
  CMC (%): 0.001%
[1]; relative to DDM
  ΔTm: +4.6
[1]
  Tm: 66.8 (n = 3)
[2]; 10 times CMC and 50 times CMC
  Stabilization of β2AR-T4L, comparison in words: best overall properties for stabilizing β2AR-T4L
[2]; 10 × CMC, relative to DDM
  ΔTm: +3.9
[2]; [5]
  Tm: 67.4 (n = 3)
[2]; 50 × CMC, relative to DDM
  ΔTm: +5.4
[2]; 50 × CMC
  Tm: 68.4 (n = 3)*
[2]; concentration not given, matches most favourable (*) Tm minus DDM 63.5
  ΔTm: +4.9
β2AR
  Outcome of LCP crystallization of agonist-bound β2AR: diffraction quality crystals were obtained
M3 muscarinic receptor
  Binding (counts per minute (CPM)) of [3H]NMS compared to the use of DDM alone: nine-fold higher

## CCCCCCCCCC(CCCCCCCCC)(COC1OC(CO)C(OC2OC(CO)C(O)C(O)C2O)C(O)C1O)COC1OC(CO)C(OC2OC(CO)C(O)C(O)C2O)C(O)C1O (centres unmarked) [MNG-28]
[4]
  CMC: 0.018 mM
  CMC (%): 0.0018%
M3 muscarinic receptor
  Binding (counts per minute (CPM)) of [3H]NMS compared to the use of DDM alone: three-fold greater

— patent publication US20130324707A1, “SYNTHETIC AMPHIPHILES FOR MEMBRANE PROTEIN MANIPULATION” (The Board of Trustees of the Leland Stanford Junior …, priority 2009, published 2013)
